# Measurements taken from paper PMC8119466, “A screen of FDA-approved drugs identifies inhibitors of protein tyrosine phosphatase 4A3 (PTP4A3 or PRL-3)” (Scientific Reports, 2021).
# Where a name gives a salt, the structure may show the parent alone.
# Tests used:
# Assay type in all cases: biochemical
# Conditions in all cases: FDA-approved drug screen
# [1] = target: T1, recombinant PRL-1 (Homo sapiens, UniProt Q93096); assay: In vitro phosphatase assay (DiFMUP hydrolysis), PRL-1; note: test concentration or dose not given here
# T1 construct: 6xHis (N, cleaved yes); made in house; host or cells: E. coli One Shot BL21 Star
# T1 sequence (Q93096 1-173): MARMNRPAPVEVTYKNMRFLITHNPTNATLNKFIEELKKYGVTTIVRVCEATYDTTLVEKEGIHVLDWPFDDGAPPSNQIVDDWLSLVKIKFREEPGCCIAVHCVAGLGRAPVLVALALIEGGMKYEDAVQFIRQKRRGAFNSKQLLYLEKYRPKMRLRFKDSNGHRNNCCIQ
# [2] = target: T2, recombinant PRL-3 (Homo sapiens, UniProt O75365); assay: In vitro phosphatase assay (DiFMUP hydrolysis), PRL-3; note: test concentration or dose not given here
# T2 construct: 6xHis (N, cleaved yes); made in house; host or cells: E. coli One Shot BL21 Star
# [3] = target: T3, recombinant PRL-2 (Homo sapiens, UniProt Q12974); assay: In vitro phosphatase assay (DiFMUP hydrolysis), PRL-2;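 note: PRL-2 activity read as DiFMUP hydrolysis after 20 min at room temperature with drug, enzyme first pre-reduced at 4 °C for 20 min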
# T3 construct: 6xHis (N, cleaved yes); made in house; host or cells: E. coli One Shot BL21 Star
# T3 sequence (Q12974 1-167): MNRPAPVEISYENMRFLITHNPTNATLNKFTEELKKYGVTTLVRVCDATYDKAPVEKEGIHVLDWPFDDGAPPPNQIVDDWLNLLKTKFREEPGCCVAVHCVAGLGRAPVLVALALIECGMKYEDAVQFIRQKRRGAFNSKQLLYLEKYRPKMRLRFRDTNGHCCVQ
# T2 sequence (O75365 whole entry): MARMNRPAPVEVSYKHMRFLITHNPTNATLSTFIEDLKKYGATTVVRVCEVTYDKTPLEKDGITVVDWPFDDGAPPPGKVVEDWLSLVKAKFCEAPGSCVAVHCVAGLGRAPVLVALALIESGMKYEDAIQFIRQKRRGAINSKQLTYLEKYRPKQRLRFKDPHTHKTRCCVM
Structure (SMILES),% Phosphatase Activity (compared to DMSO) PRL-1 ([1]; compared to DMSO) [%],% Phosphatase Activity (compared to DMSO) PRL-3 ([2]; compared to DMSO) [%],% Phosphatase Activity (compared to DMSO) PRL-2 ([3]; compared to DMSO) [%],% Phosphatase Activity (compared to DMSO) PRL-1 ([1]; activity compared to DMSO) [%],% Phosphatase Activity (compared to DMSO) PRL-3 ([2]; activity compared to DMSO) [%],% Phosphatase Activity (compared to DMSO) PRL-2 ([3]; activity compared to DMSO) [%]
CN(CCOc1ccc(CC2SC(=O)NC2=O)cc1)c1ccccn1 (stereo not drawn) [Rosiglitazone],90,79,111,–,–,–
CC(C)c1nc(N(C)S(C)(=O)=O)nc(-c2ccc(F)cc2)c1/C=C/[C@@H](O)C[C@@H](O)CC(=O)O [Rosuvastatin Calcium],107,83,99,–,–,–
CCCN(CCc1cccs1)[C@H]1CCc2c(O)cccc2C1 [Rotigotine],100,82,99,–,–,–
CC(=O)OCC(=O)NCCCOc1cccc(CN2CCCCC2)c1 [Roxatidine Acetate HCl],96,95,111,–,–,–
CC[C@H]1OC(=O)[C@H](C)[C@@H](O[C@H]2C[C@@](C)(OC)[C@@H](O)[C@H](C)O2)[C@H](C)[C@@H](O[C@@H]2O[C@H](C)C[C@H](N(C)C)[C@H]2O)[C@](C)(O)C[C@@H](C)/C(=N\OCOCCOC)[C@H](C)[C@@H](O)[C@]1(C)O [Roxithromycin],93,70,105,–,–,–
"CNCc1ccc(-c2[nH]c3cc(F)cc4c3c2CCNC4=O)cc1 [Rucaparib (AG-014699,PF-01367338)]",2402,2134,3226,–,–,–
NC(=O)c1cn(Cc2c(F)cccc2F)nn1 [Rufinamide],91,77,91,–,–,–
Cc1cncc(CN2CCC(=C3c4ccc(Cl)cc4CCc4cccnc43)CC2)c1.O=C(O)/C=C/C(=O)O [Rupatadine Fumarate],92,98,100,–,–,–
C[C@@H]1O[C@@H](OC[C@H]2O[C@@H](Oc3c(-c4ccc(O)c(O)c4)oc4cc(O)cc(O)c4c3=O)[C@H](O)[C@@H](O)[C@@H]2O)[C@H](O)[C@H](O)[C@H]1O [Rutin],88,71,82,–,–,–
N#CC[C@H](C1CCCC1)n1cc(-c2ncnc3[nH]ccc23)cn1 [Ruxolitinib (INCB018424)],116,66,132,–,–,–
COc1ccc([C@H]2CNC(=O)C2)cc1OC1CCCC1 [S- (+)-Rolipram],107,87,110,–,–,–
CCn1c(=O)c(-c2cc[nH]n2)cc2c(C)nc(N)nc21 [SAR245409 (XL765)],89,74,74,–,–,–
C[C@H](NCc1ccc(OCc2cccc(F)c2)cc1)C(N)=O [Safinamide Mesylate],103,86,112,–,–,–
CC(C)(C)NCC(O)c1ccc(O)c(CO)c1.CC(C)(C)NCC(O)c1ccc(O)c(CO)c1.O=S(=O)(O)O (stereo not drawn) [Salbutamol Sulfate],94,88,90,–,–,–
O=C(O)c1ccccc1O [Salicylic acid],103,98,124,–,–,–
OCc1cc(C(O)CNCCCCCCOCCCCc2ccccc2)ccc1O (stereo not drawn) [Salmeterol Xinafoate],146,110,136,–,–,–
CN1CCN(CCOc2cc(OC3CCOCC3)c3c(Nc4c(Cl)ccc5c4OCO5)ncnc3c2)CC1 [Saracatinib (AZD0530)],99,79,98,–,–,–
O=C(O)c1cn(-c2ccc(F)cc2)c2cc(N3CCNCC3)c(F)cc2c1=O [Sarafloxacin HCl],108,116,108,–,–,–
N#C[C@@H]1C[C@@H]2C[C@@H]2N1C(=O)[C@@H](N)C12CC3CC(CC(O)(C3)C1)C2 [Saxagliptin hydrate],93,86,80,–,–,–

Structure (SMILES),% Phosphatase Activity (compared to DMSO) PRL-1 ([1]; compared to DMSO) [%],% Phosphatase Activity (compared to DMSO) PRL-3 ([2]; compared to DMSO) [%],% Phosphatase Activity (compared to DMSO) PRL-2 ([3]; compared to DMSO) [%],% Phosphatase Activity (compared to DMSO) PRL-1 ([1]; activity compared to DMSO) [%],% Phosphatase Activity (compared to DMSO) PRL-3 ([2]; activity compared to DMSO) [%],% Phosphatase Activity (compared to DMSO) PRL-2 ([3]; activity compared to DMSO) [%]
N#C[C@@H]1C[C@@H]2C[C@@H]2N1C(=O)[C@@H](N)C12CC3CC(CC(O)(C3)C1)C2 [Saxagliptin],106,79,113,–,–,–
Cc1ncc([N+](=O)[O-])n1CC(C)O (stereo not drawn) [Secnidazole],112,81,102,–,–,–
Cn1cnc2c(F)c(Nc3ccc(Br)cc3Cl)c(C(=O)NOCCO)cc21 [Selumetinib (AZD6244)],92,87,93,–,–,–
CC(C)[C@H](O)C(=O)N[C@@H](C)C(=O)N[C@@H]1C(=O)N(C)CCc2ccccc21 [Semagacestat (LY450139)],104,86,120,–,–,–
Cl.NCCc1c[nH]c2ccc(O)cc12 [Serotonin HCl],106,80,101,–,–,–
Clc1ccc(C(Cn2ccnc2)OCc2csc3c(Cl)cccc23)c(Cl)c1 (stereo not drawn) [Sertaconazole nitrate],–,–,–,110,99,101
CN[C@H]1CC[C@@H](c2ccc(Cl)c(Cl)c2)c2ccccc21 [Sertraline HCl],–,–,–,96,75,101
CCCc1nn(C)c2c(=O)[nH]c(-c3cc(S(=O)(=O)N4CCN(C)CC4)ccc3OCC)nc12 [Sildenafil Citrate],–,–,–,100,84,88
CCCc1nn(C)c2c(=O)[nH]c(-c3cc(S(=O)(=O)N4CCN(C)CC4)ccc3OCC)nc12.CS(=O)(=O)O [Sildenafil Mesylate],–,–,–,94,94,79
CCCc1nn(C)c2c(=O)[nH]c(-c3cc(S(=O)(=O)N4CCN(C)CC4)ccc3OCC)nc12 [Sildenafil],–,–,–,75,99,72
COc1cc(C2Oc3cc([C@H]4Oc5cc(O)cc(O)c5C(=O)[C@@H]4O)ccc3OC2CO)ccc1O (stereo partly drawn) [Silibinin],–,–,–,88,87,87
C[C@H](Cc1cc2c(c(C(N)=O)c1)N(CCCO)CC2)NCCOc1ccccc1OCC(F)(F)F [Silodosin],–,–,–,117,95,104
CCC(C)(C)C(=O)O[C@H]1C[C@@H](C)C=C2C=C[C@H](C)[C@H](CC[C@@H]3C[C@@H](O)CC(=O)O3)[C@H]21 [Simvastatin],–,–,–,84,91,94
CN[C@@H]1[C@@H](O)[C@@H](O[C@@H]2[C@@H](O)[C@H](O[C@H]3OC(CN)=CC[C@H]3N)[C@@H](N)C[C@H]2N)OC[C@]1(C)O [Sisomicin sulfate],–,–,–,83,107,84
N[C@@H]1CN(c2c(F)cc3c(=O)c(C(=O)O)cn([C@@H]4C[C@@H]4F)c3c2Cl)CC12CC2.O [Sitafloxacin Hydrate],–,–,–,91,81,90
N[C@@H](CC(=O)N1CCn2c(nnc2C(F)(F)F)C1)Cc1cc(F)c(F)cc1F [Sitagliptin phosphate monohydrate],–,–,–,117,89,120
CC(C)(C)C(=O)Oc1ccc(S(=O)(=O)Nc2ccccc2C(=O)NCC(=O)O)cc1 [Sivelestat sodium],–,–,–,89,75,86
Nc1ccc(C(=O)[O-])c(O)c1.[Na+] [Sodium 4-Aminosalicylate],–,–,–,90,69,119
